Data published in patent publication US6277862A, “Quinoline derivatives” (SmithKline Beecham S.p.A., priority 1995, dated 2001).
Counter-ions that a name gives are not always drawn.

Legend:
[1] = molecular target: T1, human neurokinin-3 receptors expressed in CHO cell lines (Homo sapiens, UniProt P29371); experiment: biochemical; details: human NK-3 receptors in CHO cell lines; radioligand [125I]-[Me-Phe7]-NKB; mean of 2-5 separate experiments in duplicate or triplicate; read-out: Binding affinity in hNK-3-CHO IC50
T1 sequence (P29371 1-465): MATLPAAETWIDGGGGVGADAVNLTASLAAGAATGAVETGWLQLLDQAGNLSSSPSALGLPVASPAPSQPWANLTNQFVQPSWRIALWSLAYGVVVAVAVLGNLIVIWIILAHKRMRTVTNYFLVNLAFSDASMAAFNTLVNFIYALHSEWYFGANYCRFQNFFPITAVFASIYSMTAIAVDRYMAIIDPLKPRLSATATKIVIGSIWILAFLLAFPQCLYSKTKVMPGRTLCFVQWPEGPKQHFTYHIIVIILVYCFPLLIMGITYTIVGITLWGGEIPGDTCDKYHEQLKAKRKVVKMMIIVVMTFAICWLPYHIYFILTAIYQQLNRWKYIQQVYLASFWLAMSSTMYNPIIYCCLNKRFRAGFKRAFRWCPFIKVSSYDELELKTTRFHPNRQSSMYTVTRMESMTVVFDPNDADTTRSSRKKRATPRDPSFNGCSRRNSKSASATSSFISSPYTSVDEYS
Method: The activity of the compounds of the present invention, as NK3 ligands, is determined by their ability to inhibit the binding of the radiolabelled NK3 ligands, [^125 I]-[Me--Phe^7 ]-NKB or [^3 H]-Senktide, to guinea-pig and human NK3 receptors (Renzetti et at, 1991, Neuropeptide, 18, 104-114; Buell et al, 1992, FEBS, 299(1), 90-95; Chung et al, 1994, Biochem. Biophys. Res. Commun., 198(3), 967-972).
The binding assays utilized allow the determination of the concentration of the individual compound required to reduce by 50% the [^125 I]-[Me--Phe^7 ]-NKB and [^3 H]-Senktide specific binding to NK3 receptor in equilibrium conditions (IC50).
The NK3 -antagonist activity of the compounds of the present invention is determined by their ability to inhibit senktide-induced contraction of the guinea-pig ileum (Maggi et al, 1990, Br. J. Pharmacol., 101, 996-1000) and rabbit isolated iris sphincter muscle (Hall et al., 1991, Eur. J. Pharmacol., 199, 9-14) and human NK3 receptors-mediated Ca^++ mobilization (Mochizuki et al, 1994, J. Biol. Chem., 269, 9651-9658). Guinea-pig and rabbit in-vitro functional assays provide for each compound tested a mean KB value of 3-8 separate experiments, where KB is the concentration of the individual compound required to produce a 2-fold rightward shift in the concentration-response curve of senktide. Human receptor functional assay allows the determination of the concentration of the individual compound required to reduce by 50% (IC50 values) the Ca^++ mobilization induced by the agonist NKB.

[2] = molecular target: T2, NK-3 receptor relative to the NK-2 receptor (Homo sapiens, UniProt P29371); experiment: Selectivity for the NK-3 receptor relative to the NK-2 receptor; assay type: binding; details: in words
T2 construct: counter-target NK-2 receptor (TACR2, human P21452); assay not given
T2 sequence (P29371 1-465): T1 sequence (P29371 1-465)

NK-2 and NK-3 receptors = experiment: Combined NK-2/NK-3 antagonism; details: in words

Row | SMILES | IC50 [1] [nM] | selectivity for the NK-3 receptor relative to the NK-2 receptor [2] | combined NK-2/NK-3 antagonism (NK-2 and NK-3 receptors)
1 | CC[C@H](NC(=O)c1c(OCCNC2Cc3ccccc3C2)c(-c2ccccc2)nc2ccccc12)c1ccccc1 [Example 8, (S)-N-(α-ethylbenzyl)-3-[2-(2-indanylamino)ethoxy]-2-phenylquinoline-4-carboxamide hydrochloride] | 1.3 |  | 
2 | CC[C@H](NC(=O)c1c(OCCNC(=O)c2ccccc2)c(-c2ccccc2)nc2ccccc12)c1ccccc1 [Example 9, (S)-N-(α-ethylbenzyl)-3-(2-benzoylaminoethoxy)-2-phenylquinoline-4-carboxamide] | 2.2 |  | 
3 | CC[C@H](NC(=O)c1c(OCCCC(=O)O)c(-c2ccccc2)nc2ccccc12)c1ccccc1 [Example 11, (S)-N-(a-ethylbenzyl)-3-(carboxypropoxy)-2-phenylquinoline-4-carboxamide] | 1.7 |  | 
4 | CC[C@H](NC(=O)c1c(OCCNC(=O)CCC(=O)O)c(-c2ccccc2)nc2ccccc12)c1ccccc1 [Example 14, (S)-N-(a-ethylbenzyl)-3-[2-(3-carboxypropanoyl)aminoethoxy]-2-phenylquinoline-4-carboxamide] | 2.3 |  | 
5 | CC[C@H](NC(=O)c1c(OCCNC(=O)Cc2ccccc2)c(-c2ccccc2)nc2ccccc12)c1ccccc1 [Example 22] | 0.6 |  | 
6 | CC[C@H](NC(=O)c1c(OCCNC(=O)CN)c(-c2ccccc2)nc2ccccc12)c1ccccc1 [Example 25, (S)-N-(a-ethylbenzyl)-3-(2-aminoacetylaminoethoxy)-2-phenylquinoline-4-carboxamide] | 2.6 |  | 
7 | CC[C@H](NC(=O)c1c(OCCNC(=O)Cc2ccncc2)c(-c2ccccc2)nc2ccccc12)c1ccccc1 [Example 26, (S)-N-(a-ethylbenzyl)-3-[2-(4-pyridylacetyl)aminoethoxy]-2-phenylquinoline-4-carboxamide] | 0.9 |  | 
8 | CC[C@H](NC(=O)c1c(OCCNC(=O)Cc2ccccc2C(=O)O)c(-c2ccccc2)nc2ccccc12)c1ccccc1 [Example 29, (S)-N-(a-ethylbenzyl)-3-[2-(2'-carboxyphenylacetyl)aminoethoxy]-2-phenylquinoline-4-carboxamide] | 0.8 |  | 
9 | CC[C@H](NC(=O)c1c(OCCNC(=O)c2ccccc2CC(=O)O)c(-c2ccccc2)nc2ccccc12)c1ccccc1 [Example 30, (S)-N-(a-ethylbenzyl)-3-[2-(2'-carboxymethylbenzoyl)aminoethoxy]-2-phenylquinoline-4-carboxamide] | 1.5 |  | 
10 | CC[C@H](NC(=O)c1c(OCc2ccncc2)c(-c2ccccc2)nc2ccccc12)c1ccccc1 [Example 34] | 1.6 | particularly selective for the NK-3 receptor relative to the NK-2 receptor | 
11 | CC[C@H](NC(=O)c1c(OCCNC(=O)c2cnccn2)c(-c2ccccc2)nc2ccccc12)c1ccccc1 [Example 36] | 0.2 | particularly selective for the NK-3 receptor relative to the NK-2 receptor | 
12 | CC[C@H](NC(=O)c1c(OCCCNC(=O)c2cnccn2)c(-c2ccccc2)nc2ccccc12)c1ccccc1 [Example 38] | 0.4 | particularly selective for the NK-3 receptor relative to the NK-2 receptor | 
13 | CC[C@H](NC(=O)c1c(OCCNC(=O)Cc2ccccc2CNC)c(-c2ccccc2)nc2ccccc12)c1ccccc1 [Example 39] |  |  | particularly suitable as combined NK-2/NK-3 antagonists
14 | CC[C@H](NC(=O)c1c(OCCNC(=O)Cc2ccccc2CN2CCCC2)c(-c2ccccc2)nc2ccccc12)c1ccccc1 [Example 40] | 1.3 |  | particularly suitable as combined NK-2/NK-3 antagonists
15 | CC[C@H](NC(=O)c1c(OCCNC(=O)Cc2ccccc2O)c(-c2ccccc2)nc2ccccc12)c1ccccc1 [Example 42] | 0.4 |  | 
